Experiments:
Trypanosoma cruzi [1] = experiment: (§1) GSK_TCAKS: pIC50 Trypanosoma cruzi Imaging: Infected Cells. […] Cells were then washed once with PBS before infection. T. cruzi trypomastigotes, collected at days 5 to 8 after infection from LLC-MK2 parasite infected cultures, were allowed to swim out for 4h at 37C from a centrifuged pellet (2,500 rpm/10 min/room temperature). Trypomastigotes were then collected and counted in a CASY Cell Counter. Trypomastigotes, in supplemented DMEM, were added to H9c2 cultures in a multiplicity of infection of 1 and incubated for 18 h. Cells were washed once with PBS before incubation of the infected H9c2 monolayer with trypsin (Life-Technologies) to detach cells from the flask. Cells were counted in a CASY Cell Counter using a 150 um capillary and their density set at 5 * 10^4 cells per mL in supplemented assay DMEM. Infected H9c2 were dispensed into 384-well poly-lysine coated assay plates at 50uL per well using a Multidrop Combi dispenser. After seeding them, the plates were incubated at 37C, 5% CO2 for 72h. Cultures were then fixed and stained by addition of 50 uL of a solution containing 8% formaldehyde and 4 uM DRAQ5 DNA dye (BioStatus, UK) per well. […] Five images were collected per well for reliable statistical analysis. Automated image analysis was performed with a script developed on Acapella High Content Imaging and Analysis Software (PerkinElmer). Output: percentage of infected cells per well as a second infection marker.; assay type: functional, organism-based, Rattus norvegicus; details: H9c2, 4 h
Leishmania donovani [2] = experiment: (§2) GSK_TCAKS: pIC50 Leishmania donovani Imaging: Amastigotes/Macrophages. Assay plates (384-well) were prepared by adding 250nL of compound to each well. For single shot assay, the final compound concentration was 5 uM. […] Automated image analysis was performed with a script developed on Acapella High Content Imaging and Analysis Software (PerkinElmer). Output: Average number of amastigotes per macrophage cell were reported for each well.; assay type: functional, organism-based, Homo sapiens; details: THP-1
Leishmania donovani [3] = experiment: GSK_TCAKS: pIC50 Leishmania donovani viability assay using fluorescence intensity. Assay plates (1536-well) were prepared by adding 30nL per well of compound. For single shot assay, the final compound concentration was 5uM. […] Briefly, eGFP LdBOB axenic amastigotes were harvested, fixed and counted in a CASY cell counter (Roche-Applied Science). A final concentration of 1.5 * 10^5 cells per well were prepared in amastigote media containing 500 U/mL penicillin/streptomycin (Invitrogen) and 6uL was dispensed to each experimental well using a Multidrop Combi dispenser (Thermo Scientific). 6uL of assay media was dispensed to control columns used as reference for 100% compound response. Following incubation for 72 h at 37C, 5% CO2, 2 uL of resazurin was added to each well at a final concentration of 0.5 mM in phosphate buffered saline (PBS) with IGEPAL (Sigma-Aldrich), 0.05% (v/v).; assay type: functional, organism-based
[4] = tested on: Trypanosoma brucei brucei; experiment: GSK_TCAKS: pIC50 Trypanosoma brucei viability assay using fluorescence intensity. Assay plates (1536-well) were prepared by dispensing 25nL of compound solution per well using an Echo acoustic dispenser (Labcyte).; assay type: functional, organism-based; details: Lister 427, 2 h
Trypanosoma cruzi [5] = experiment: GSK_TCAKS: pIC50 Trypanosoma cruzi Imaging: Amastigotes/Cell. […] Cells were then washed once with PBS before infection. T. cruzi trypomastigotes, collected at days 5 to 8 after infection from LLC-MK2 parasite infected cultures, were allowed to swim out for 4h at 37C from a centrifuged pellet (2,500 rpm/10 min/room temperature). Trypomastigotes were then collected and counted in a CASY Cell Counter. Trypomastigotes, in supplemented DMEM, were added to H9c2 cultures in a multiplicity of infection of 1 and incubated for 18 h. Cells were washed once with PBS before incubation of the infected H9c2 monolayer with trypsin (Life-Technologies) to detach cells from the flask. Cells were counted in a CASY Cell Counter using a 150 um capillary and their density set at 5 * 10^4 cells per mL in supplemented assay DMEM. Infected H9c2 were dispensed into 384-well poly-lysine coated assay plates at 50uL per well using a Multidrop Combi dispenser. After seeding them, the plates were incubated at 37C, 5% CO2 for 72h. Cultures were then fixed and stained by addition of 50 uL of a solution containing 8% formaldehyde and 4 uM DRAQ5 DNA dye (BioStatus, UK) per well. […] Five images were collected per well for reliable statistical analysis. Automated image analysis was performed with a script developed on Acapella High Content Imaging and Analysis Software (PerkinElmer). Output: number of amastigotes per cell as infection level measurement.; assay type: functional, organism-based, Rattus norvegicus; details: H9c2, 4 h
[6] = biological target: Sterol 14-alpha demethylase (Trypanosoma cruzi (strain CL Brener), UniProt Q7Z1V1); experiment: GSK_TCAKS: pIC50 CYP51 from Trypanosoma cruzi.; assay type: functional
[7] = tested on: Trypanosoma brucei brucei; experiment: GSK_TCAKS: pIC50 Trypanosoma brucei viability assay using luminiscence. Assay plates (1536-well) were prepared. T. brucei cultures were harvested and counted in a CASY cell counter. A parasite suspension was prepared at a final concentration of 5 * 10^4 cells/mL in complete HMI9 medium and 6uL was dispensed to all wells containing compounds using a Multidrop Combi dispenser. 6uL of HMI9 media with 0.4% DMSO were dispensed to control columns. Plates were incubated for 24 h at 37C, 5% CO2 then tempered for 10 min at room temperature. ATP content was quantified by adding 4 uL of CellTiter-Glo Reagent (Promega) according to the manufacturer's instructions. Luminescence was measured using a ViewLux.; assay type: functional, organism-based; details: Lister 427, CASY
Leishmania donovani [8] = experiment: as §2, with “THP-1 Host Macrophages.” for “Amastigotes/Macrophages.”, “THP-1” for “Average number of amastigotes per macrophage”, “cell count” for “cell”; assay type: functional, organism-based, Homo sapiens
Trypanosoma cruzi [9] = experiment: as §1, with “H2C9” for “Trypanosoma cruzi”, “H9c2 Host Cardiomyocytes.” for “Infected Cells.”, “Number” for “percentage”, “H9c2 Host Cardiomyocytes nuclei to determine drug-related cytotoxicity.” for “infected cells per well as a second infection marker.”; assay type: functional, organism-based, Rattus norvegicus; details: H9c2, 4 h
[10] = GSK_TCAKS: pIC50 HepG2 human cell line viability assay using luminiscence. […] Seeding density was checked to ensure that new mono-layers were not more than 50% confluent at the time of harvesting. Cell suspension was added to 500 mL of the same medium at a final density of 1.2 * 10^5 cells/mL. This cell suspension was dispensed (25 uL, 3000 cells per well) into 384-well clear-bottom plates using a Multidrop Combi dispenser. Prior to addition of the cell suspension, the screening compounds (250 nL) were pre-dispensed into the plates with an Echo liquid handler. Plates were incubated for 48 h at 37C, 5% CO2. After incubation, plates equilibrated at room temperature for 30 min before proceeding to develop the luminescent signal. The signal developer, CellTiter-Glo Reagent, was allowed to equilibrate at room temperature for 30 min and added to the plates (25uL per well) using a Multidrop Combi dispenser. Plates were left for 10 min at room temperature for stabilization and then read using a ViewLux.; assay type: toxicity, cell-based
Leishmania donovani [11] = experiment: as §2, with “Infected Macrophages.” for “Amastigotes/Macrophages.”, “Percent” for “Average number”, “infected” for “amastigotes per”, “cells” for “cell”; assay type: functional, organism-based, Homo sapiens; details: THP-1
Trypanosoma cruzi [12] = experiment: GSK_TCAKS: pIC50 Trypanosoma cruzi viability assay using beta-GAL activity. This assay was run at single shot at 5uM compound concentration per well. The biological reagents consisted of NIH-3T3 host cells and trypomastigotes parasitic cells; both cell types were set to a 3.3 * 10^5 cells/mL dilution in assay DMEM by means of a CASY cell counter device using a 60um capillary. 6 uL of the mixture were dispensed per well (about 1 * 10^3 host-cells and 1 * 10^3 parasites) with a Multidrop Combi dispenser. […] In all wells, the percentage of DMSO never exceeded 0.5%. Plates incubated for four days at 37C, 5% CO2. The substrate used for the assay fluorescence intensity (FLINT) readout was resorufin-beta-D-galactopiranoside (Sigma-Aldrich) at 5uM per well. It was diluted in PBS supplemented with the soft detergent Igepal (Fluka).; assay type: functional, organism-based, Mus musculus; details: Tulahuen, NIH3T3

Chain of Sterol 14-alpha demethylase (Q7Z1V1 whole entry): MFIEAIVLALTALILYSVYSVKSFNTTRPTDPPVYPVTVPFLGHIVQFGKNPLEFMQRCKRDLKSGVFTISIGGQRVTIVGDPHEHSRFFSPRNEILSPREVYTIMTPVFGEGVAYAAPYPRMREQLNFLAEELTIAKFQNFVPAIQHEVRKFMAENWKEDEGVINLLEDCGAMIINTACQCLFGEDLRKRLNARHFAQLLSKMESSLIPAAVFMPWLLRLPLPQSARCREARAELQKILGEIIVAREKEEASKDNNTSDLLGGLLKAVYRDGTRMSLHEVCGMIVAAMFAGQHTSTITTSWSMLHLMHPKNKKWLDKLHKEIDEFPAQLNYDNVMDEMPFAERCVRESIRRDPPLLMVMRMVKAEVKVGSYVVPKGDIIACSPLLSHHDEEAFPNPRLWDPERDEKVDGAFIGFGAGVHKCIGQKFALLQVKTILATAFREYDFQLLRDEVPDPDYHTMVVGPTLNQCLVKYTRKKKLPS

Compound	IC50 (Trypanosoma cruzi [1])	IC50 (Leishmania donovani [2])	IC50 (Leishmania donovani [3])	IC50 [4]	IC50 (Trypanosoma cruzi [5])	IC50 [6]	IC50 [7]	IC50 (Leishmania donovani [8])	IC50 (Trypanosoma cruzi [9])	IC50 at 48 h [10]	IC50 (Leishmania donovani [11])	IC50 (Trypanosoma cruzi [12])
O=C(Nc1nc(-c2ccc(F)cc2)cs1)c1ccc([N+](=O)[O-])s1	0.251 µM	1 µM	0.631 µM	0.251 µM	0.158 µM	50.1 µM	1.26 µM	7.94 µM	3.98 µM	12.6 µM	1.26 µM	0.2 µM
COc1ccc(-c2csc(NC(=O)c3ccc([N+](=O)[O-])s3)n2)cc1	0.251 µM	1.58 µM	3.16 µM	0.0794 µM	0.2 µM	> 100 µM	0.794 µM	> 50.1 µM	31.6 µM	> 100 µM	3.98 µM	0.158 µM
CN(Cc1nc2cccc(C(=O)N3CCN(Cc4ccccc4)CC3)c2[nH]1)C1CCCc2cccnc21 (stereo not drawn)	0.501 µM	0.794 µM	5.01 µM	0.631 µM	0.501 µM	39.8 µM	1 µM	10 µM	7.94 µM	12.6 µM	1.26 µM	0.794 µM
O=C(COc1ccccc1)Nc1ccccc1C(=O)Nc1nccs1	> 50.1 µM	> 50.1 µM	> 50.1 µM	0.398 µM	> 50.1 µM	> 100 µM	0.631 µM	7.94 µM	> 50.1 µM	> 100 µM	> 50.1 µM	> 50.1 µM
CCOc1ccccc1C(=O)Nc1nnc(-c2ccc3c(c2)OCO3)s1	0.0794 µM	0.316 µM	0.794 µM	> 39.8 µM	0.0631 µM	> 100 µM	> 39.8 µM	> 50.1 µM	> 50.1 µM	> 100 µM	0.501 µM	0.631 µM
COc1ccc(-c2csc(NC(=O)c3ccc([N+](=O)[O-])s3)n2)cc1OC	0.1 µM	1.26 µM	1 µM	0.126 µM	0.0794 µM	> 100 µM	0.631 µM	31.6 µM	6.31 µM	10 µM	1.26 µM	0.1 µM
O=C(CN1CCN(S(=O)(=O)c2cccc([N+](=O)[O-])c2)CC1)Nc1ccc(Oc2ccccc2)cc1	2.51 µM	2 µM	3.98 µM	20 µM	1.26 µM	2.51 µM	15.8 µM	> 50.1 µM	> 50.1 µM	> 100 µM	7.94 µM	2.51 µM
COc1ccc2ncc(F)c(CCN3CC[C@@H](NC(=O)c4cc5c(s4)CCC5)[C@@H](O)C3)c2n1	0.126 µM	1.26 µM	1 µM	0.1 µM	0.0501 µM	1.26 µM	0.316 µM	25.1 µM	0.126 µM	50.1 µM	6.31 µM	0.158 µM
CC(=O)NC1(c2ccccc2)CCN(CC(=O)Nc2ccccc2-c2ccccc2)CC1	7.94 µM	39.8 µM	20 µM	0.631 µM	1.58 µM	50.1 µM	0.501 µM	> 50.1 µM	> 50.1 µM	> 100 µM	> 50.1 µM	1.26 µM

From ChEMBL document CHEMBL3430912, “GSK Tres Cantos Anti-Kinetoplastid Screening (TCAKS) Data”
